Measurements as given in patent US20200077656A1, “Use of an Acyclic Picolinamide Compound as a Fungicide for Control of Phytopathogenic Fungi in Row Crops” (priority 2017, published 2020).

Assays:
Format in all cases: in vivo
Cercospora sojina = test: Field assessment of Cercospora sojina (CERSO) in soybean; details: for Percent Visual Severity of CERCSO: soybean upper canopy, untreated 8.6; for CERCSO Percent of Untreated (AUDPC): leaftop severity
Cercospora beticola = test: Field assessment of Cercospora beticola (CERCBE) on sugar beet, two trials averaged
Procedure: Field Assessment of Cercospora beticola (CERCBE) on Sugar Beet: Assessment of compound I of CERCBE on sugar beet was performed in two separate field trials. In the first trial, a fungicidal treatment containing an EC and SC formulations of compound I by itself and in combination with an adjuvant (Phase II, 50% w/w at 0.5% v/v) was sprayed on sugar beet plants ([…] variety) six times during the course of 7 weeks at the 18-39 growth stages of sugar beet. […] In the second trial, a fungicidal treatment containing an EC and SC formulations of compound I by itself and in combination with an adjuvant (Phase II, 50% w/w at 0.5% v/v) was sprayed on sugar beet plants (BEAVA) five times during the course of 4 weeks at the 36-49 growth stages of sugar beet. […] Disease severity was recorded as a percentage of visual diseased foliage on whole plot. Cercospora leaf spot infection was assessed three times at 7, 14 and 21 days after the last application. The disease infection was recorded following EPPO PP 1/1 (4) guideline prescriptions. Area under the disease progress curve (AUDPC) was calculated for each plot using the sets of recorded severity data. Relative AUDPC (% control based on AUDPC) was calculated as percent of the nontreated control and averaged over both field trials.

[1] = system: Blumeria graminis f. sp. tritici; test: Field assessment of Blumeria graminis f. sp. tritici (ERYSGT) on wheat
Procedure: Field Assessment of Blumeria graminis f sp. […] Disease severity was recorded as a percentage of visual diseased foliage on whole plot. […] infection was assessed three times at 12, 19 and 26 days after the last application. The disease infection was recorded following EPPO PP1/26 guideline prescriptions. Area under the disease progress curve (AUDPC) was calculated for each plot using the sets of recorded severity data. Relative AUDPC (% control based on AUDPC) was calculated as percent of the nontreated control.

Cercospora zeae-maydis = test: Field assessment of Cercospora zeae-maydis (CERCZM) in corn; details: EC + Trycol adjuvant
Procedure: Field Assessment of Cercospora zeae-Maydis (CERCZM) in Corn: […] The experimental plots were inoculated with grey leaf spot 24 hr after application. […] Disease severity (percentage of visual diseased foliage on whole plot) was assessed five times during the trial (22-50 days after application, DAA). The disease infection was recorded following EPPO PP1/26 guideline prescriptions. Area under the disease progress curve (AUDPC) was calculated for each plot using the sets of recorded severity data. Relative AUDPC (% control based on AUDPC) was calculated as percent of the nontreated control.

[2] = system: Blumeria graminis f. sp. hordei; test: Greenhouse assessment of Blumeria graminis f. sp. hordei (ERYSGH) on barley; details: inoculated 1 day post application, barley seedlings
Procedure: Greenhouse Assessment of Blumeria graminis f sp. hordei ([…]) on Barley: In greenhouse studies, technical grades of material were dissolved in acetone, which were then mixed with nine volumes of water containing 100 ppm of Triton X-100. The fungicide formulations were applied onto seedling plants using an automated booth sprayer to run off. All sprayed plants were allowed to dry prior to further handling. Test plants were inoculated with powdery mildew of barley 1-day post application. When disease symptoms were fully expressed on the untreated plants, infection levels were assessed on a scale of 0 to 100 percent disease severity. Percent disease control was calculated using the ratio of disease severity on treated plants relative to untreated plants.

Pyrenophora teres = test: Field assessment of Pyrenophora teres (PYRNTE) on barley, Trial 2 (natural infection); details: EC + Trycol; for % Control (AUDPC) of PYRNTE, Trial 2: barley
Procedure: Compound I was applied at a water volume of 200 L/ha under natural infection of Pyrenophora teres. Disease severity was recorded as a percentage of visual diseased foliage on whole plot. Net blotch of barley infection was assessed three times at 7, 14 and 21 days after the last application. The disease infection was recorded following EPPO PP1/26 guideline prescriptions. Area under the disease progress curve (AUDPC) was calculated for each plot using the sets of recorded severity data. Relative AUDPC (% control based on AUDPC) was calculated as percent of the nontreated control.

[3] = system: soybean (GLYMX, Glycine max); test: Yield of soybean in Cercospora sojina field trials; details: harvest at crop maturity
[4] = 50 g/ha, Agnique BP420 200 mL/ha
[5] = 75 g/ha, Agnique BP420 300 mL/ha
[6] = 100 g/ha, Adsee C80W 80% 250 g/ha
[7] = 100 g/ha, Agnique BP420 400 mL/ha
[8] = 150 g/ha, Agnique BP420 600 mL/ha

COc1ccnc(C(=O)N[C@@H](C)C(=O)O[C@@H](C)C(c2ccc(F)cc2)c2ccc(F)cc2)c1OC(C)=O [Compound I, (S)-1,1-bis(4-fluorophenyl)propan-2-yl (3-acetoxy-4-methoxypicolinoyl)-L-alaninate]
Percent Visual Severity of CERCSO (Cercospora sojina; [4]): 5.6%
Percent Visual Severity of CERCSO (Cercospora sojina; 50 g/ha, MSO 100 g/ha): 6.5%
Percent Visual Severity of CERCSO (Cercospora sojina; [5]): 4.2%
Percent Visual Severity of CERCSO (Cercospora sojina; 75 g/ha, MSO 150 g/ha): 3.6%
Percent Visual Severity of CERCSO (Cercospora sojina; [6]): 4.5%
Percent Visual Severity of CERCSO (Cercospora sojina; [7]): 4.5%
Percent Visual Severity of CERCSO (Cercospora sojina; 100 g/ha, MSO 200 g/ha): 4.3%
Percent Visual Severity of CERCSO (Cercospora sojina; [8]): 3.3%
Percent Visual Severity of CERCSO (Cercospora sojina; 150 g/ha, MSO 300 g/ha): 3.3%
CERCSO Percent of Untreated (AUDPC) (Cercospora sojina; [4]): 62.0%
CERCSO Percent of Untreated (AUDPC) (Cercospora sojina; 50 g/ha, MSO 100 g/ha): 73.8%
CERCSO Percent of Untreated (AUDPC) (Cercospora sojina; [5]): 63.1%
CERCSO Percent of Untreated (AUDPC) (Cercospora sojina; 75 g/ha, MSO 150 g/ha): 62.9%
CERCSO Percent of Untreated (AUDPC) (Cercospora sojina; [6]): 58.3%
CERCSO Percent of Untreated (AUDPC) (Cercospora sojina; [7]): 61.6%
CERCSO Percent of Untreated (AUDPC) (Cercospora sojina; 100 g/ha, MSO 200 g/ha): 52.4%
CERCSO Percent of Untreated (AUDPC) (Cercospora sojina; [8]): 48.4%
CERCSO Percent of Untreated (AUDPC) (Cercospora sojina; 150 g/ha, MSO 300 g/ha): 53.5%
% Control (AUDPC) of CERCBE (Cercospora beticola; EC, 75 g ai/ha, no adjuvant): B (51-75)
% Control (AUDPC) of CERCBE (Cercospora beticola; EC, 75 g ai/ha, with Phase II adjuvant): B (51-75)
% Control (AUDPC) of CERCBE (Cercospora beticola; EC, 150 g ai/ha, no adjuvant): A (76-100)
% Control (AUDPC) of CERCBE (Cercospora beticola; SC, 75 g ai/ha, no adjuvant): B (51-75)
% Control (AUDPC) of CERCBE (Cercospora beticola; SC, 75 g ai/ha, with Phase II adjuvant): B (51-75)
% Control (AUDPC) of CERCBE (Cercospora beticola; SC, 150 g ai/ha, no adjuvant): A (76-100)
% Control (AUDPC) of ERYSGT ([1]; 5 g ai/ha, EC + Agnique BP-420): C (26-50)
% Control (AUDPC) of ERYSGT ([1]; 5 g ai/ha, SC + Agnique BP-420): C (26-50)
% Control (AUDPC) of ERYSGT ([1]; 20 g ai/ha, EC + Agnique BP-420): A (76-100)
% Control (AUDPC) of ERYSGT ([1]; 20 g ai/ha, SC + Agnique BP-420): B (51-75)
% Control (AUDPC) of ERYSGT ([1]; 40 g ai/ha, EC + Agnique BP-420): A (76-100)
% Control (AUDPC) of ERYSGT ([1]; 40 g ai/ha, SC + Agnique BP-420): A (76-100)
% Control (AUDPC) of ERYSGT ([1]; 60 g ai/ha, EC + Agnique BP-420): A (76-100)
% Control (AUDPC) of ERYSGT ([1]; 60 g ai/ha, SC + Agnique BP-420): A (76-100)
% Control (AUDPC) of ERYSGT ([1]; 80 g ai/ha, EC + Agnique BP-420): A (76-100)
% Control (AUDPC) of ERYSGT ([1]; 80 g ai/ha, SC + Agnique BP-420): A (76-100)
% Control (AUDPC) of ERYSGT ([1]; 120 g ai/ha, EC + Agnique BP-420): A (76-100)
% Control (AUDPC) of ERYSGT ([1]; 120 g ai/ha, SC + Agnique BP-420): A (76-100)
Disease control of CERCZM, percent control based on AUDPC (Cercospora zeae-maydis; 50 g ai/ha): B (51-75)
Disease control of CERCZM, percent control based on AUDPC (Cercospora zeae-maydis; 100 g ai/ha): B (51-75)
Disease control of CERCZM, percent control based on AUDPC (Cercospora zeae-maydis; 150 g ai/ha): B (51-75)
% Control of ERYSGH (disease severity treated relative to untreated) ([2]; 0.39 ppm): B (51-75)
% Control of ERYSGH (disease severity treated relative to untreated) ([2]; 1.56 ppm): A (76-100)
% Control of ERYSGH (disease severity treated relative to untreated) ([2]; 6.25 ppm): A (76-100)
% Control of ERYSGH (disease severity treated relative to untreated) ([2]; 25 ppm): A (76-100)
% Control of ERYSGH (disease severity treated relative to untreated) ([2]; 100 ppm): A (76-100)
% Control (AUDPC) of PYRNTE, Trial 2 (Pyrenophora teres; 50 g ai/ha): B (51-75)
% Control (AUDPC) of PYRNTE, Trial 2 (Pyrenophora teres; 100 g ai/ha): B (51-75)
% Control (AUDPC) of PYRNTE, Trial 2 (Pyrenophora teres; 150 g ai/ha): B (51-75)
control of Pyrenophora teres on barley (in words) (Pyrenophora teres; replicated field trial, 50, 100 and 150 g ai/ha, natural infection): useful levels of control
GLXMA Yield Percent of Untreated [3, 4]: 117.0%
GLXMA Yield Percent of Untreated ([3]; 50 g/ha, MSO 100 g/ha): 108.0%
GLXMA Yield Percent of Untreated [3, 5]: 119.2%
GLXMA Yield Percent of Untreated ([3]; 75 g/ha, MSO 150 g/ha): 114.6%
GLXMA Yield Percent of Untreated [3, 6]: 115.3%
GLXMA Yield Percent of Untreated [3, 7]: 117.6%
GLXMA Yield Percent of Untreated ([3]; 100 g/ha, MSO 200 g/ha): 113.4%
GLXMA Yield Percent of Untreated [3, 8]: 114.8%
GLXMA Yield Percent of Untreated ([3]; 150 g/ha, MSO 300 g/ha): 112.9%
